The term IC50 denotes the concentration at which inhibition is half-maximal.

SMILES strings stand for the structures.

Among the data in the Kinase Knowledgebase extract (Sharma et al. 2016) are IC50 values, retold here.

Experiment [1] has as its target MAPK14 (human) (UniProt Q16539). Put plainly: Inhibition of TNF-alpha Production in LPS Stimulated PBMC.
Experiment [2] has the same target. Put plainly: Inhibition of IL-1beta Production in LPS Stimulated PBMC.
For experiment [3] the target is unchanged. Put plainly: Inhibition of MAPK14 Kinase Activity.
Experiment [4] shares this target. The experiment in a line: Inhibition of IL-1 beta Release in LPS Stimulated Whole Blood Cells.
Experiment [5] has the same target. The experiment in a line: Inhibition of IL-6 Release in LPS Stimulated Whole Blood Cells.
Experiment [6] shares this target. Put plainly: Inhibition of TNF-alpha Release in LPS Stimulated Whole Blood Cells.

Chain of MAPK14 (human) (Q16539 whole entry, looked up): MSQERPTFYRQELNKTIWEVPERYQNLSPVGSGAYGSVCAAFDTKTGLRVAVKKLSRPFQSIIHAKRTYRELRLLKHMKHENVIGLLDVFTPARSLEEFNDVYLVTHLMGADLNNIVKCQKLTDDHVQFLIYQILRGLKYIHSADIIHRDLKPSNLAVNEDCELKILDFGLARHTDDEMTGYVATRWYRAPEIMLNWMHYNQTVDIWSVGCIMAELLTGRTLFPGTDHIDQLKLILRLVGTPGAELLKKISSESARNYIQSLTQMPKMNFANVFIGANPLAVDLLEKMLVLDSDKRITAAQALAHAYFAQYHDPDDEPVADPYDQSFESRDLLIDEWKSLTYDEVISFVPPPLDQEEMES

On to `CC(C)[C@H](N)C(=O)OCCNC(=O)OCc1ccc(N(C(N)=O)c2c(F)cccc2F)nc1-c1ccc(F)cc1F`, for which the IC50 turned out to be 0.022 µM in experiment [1]; 0.012 µM in experiment [2]; 0.031 µM in experiment [3]; 0.14 µM in experiment [4]; 0.083 µM in experiment [5]; 0.055 µM in experiment [6].

For the molecule `CN(C)C=NC(=O)OCc1ccc(N(C(=O)N=CN(C)C)c2c(F)cccc2F)nc1-c1ccc(F)cc1F`, the IC50 in experiment [3] is 5 µM; in experiment [4], 2.2 µM; in experiment [5], 0.8 µM; in experiment [6], 4.3 µM.

Turning to `CN(C)C=NC(=O)OCc1ccc(N(C(N)=O)c2c(F)cccc2F)nc1-c1ccc(F)cc1F`, the IC50 is 0.05 µM in experiment [1]; 0.05 µM in experiment [2]; 1 µM in experiment [3]; 12.2 µM in experiment [4]; 11 µM in experiment [5]; 20 µM in experiment [6].
